The values below come from patent US7989478B2, “Cinnamoyl compound and use of the same” (Sumitomo Chemical Company, Limited, priority 2003, dated 2011).

Assay [1] relates to ability of TGF-β to promote transcription of a Type I collagen gene. The assay is described as follows: Inhibition of the ability of TGF-β to promote transcription of a Type I collagen gene (COL-Luc reporter gene assay). The assay is classed as cell-based. The note with it: final concentration 1 μM; TGF-β added; normal human fetal skin fibroblast transfected with COL-Luc; 40 hours; read-out: Inhibition percentage. The method, then:
1×10^8 cells of a normal human fetal skin fibroblast (Clontech, catalogue No. CC-2509) were cultured at 37° C. overnight under 5% CO2 atmosphere. After the cultured cells were washed with a sodium phosphate buffer (hereinafter, referred to as PBS) twice, 3 ml of PBS was added thereto and the cells were scraped away the wall of a vessel using a cell scraper (Nalgen, catalogue No. 179693). The scraped cells were collected by centrifugation (1,500 rpm, 4° C., 15 min), and these were suspended in 20 ml of PBS and centrifuged again. To the resulting precipitates were added 11 ml of Solution 2 and 4.8 μl of pronase of DNA Extraction Kit (Stratagene, catalogue No. 200600). After shaken at 60° C. for 1 hour, the resulting mixture was allowed to stand in ice for 10 minutes. Then, 4 ml of Solution 3 of the kit was added to the mixture. After mixed, the mixture was allowed to stand in ice for 5 minutes and then centrifuged (3,000 rpm, 4° C., 15 min) to recover a supernatant. To the recovered supernatant was added 2 μl of RNase per 1 ml of the supernatant and the mixture was allowed to stand at 37° C. for 15 minutes. To the mixture was added 2-fold volume of ethanol. After mixed, a white thread-like substance (genomic DNA) appeared and the substance was recovered. The recovered genomic DNA was washed with 70% ethanol and then air-dried. The air-dried genomic DNA was dissolved in 500 μl of 10 mM Tris-HCl, 1 mM EDTA (pH 8.0) (hereinafter, referred to as TE).
The resulting genomic DNA solution (the amount equivalent to 1 μg of genomic DNA), each 1 μl (10 pmol/μl) of an oligonucleotide consisting of the nucleotide sequence represented by SEQ ID No:1 and an oligonucleotide consisting of the nucleotide sequence represented by SEQ ID No:2, 29 μL of distilled water, 5 μl of the buffer attached to TaKaRa LA Taq (TAKARA SHUZO, catalogue No. RR002A), 5 μL of a Mg^2+ solution, 5 μL of a dNTP mixture and 0.5 μl of TaKaRa LA Taq (TAKARA SHUZO, catalogue No. RR002A) were mixed. After the resulting mixed solution was incubated at 94° C. for 5 minutes, the mixed solution was subjected to 30 cycles, in which one cycle consists of incubation at 94° C. for 1 minute, at 60° C. for 1 minute and then at 72° C. for 1 minute. The mixed solution was electrophoresed on a 2% agarose gel to recover about 0.5 kb of a DNA. The recovered DNA was treated with phenol/chloroform and then precipitated with ethanol to recover the DNA. The resulting DNA was dissolved in ultrapure water. To this solution were added 2.5 μl of NheI and 2.5 μl of HindIII, and then incubated at 37° C. for 3 hours. Then, the solution was electrophoresed on a 2% agarose gel to recover about 3.5 kb of a DNA. The recovered DNA was precipitated with ethanol to recover again the DNA (hereinafter, referred to as the collagen promoter DNA).
On the other hand, the vector pGL3 (Promega, catalogue No. E1751) having the nucleotide sequence encoding firefly luciferase was digested with NheI and HindIII, and then subjected to agarose gel electrophoresis as described above to recover about 5 kb of a DNA. The recovered DNA was precipitated with ethanol to recover the DNA again. To the recovered DNA were added 44 μl of distilled water, 5 μl of Buffer attached to Alkaline Phosphatase (TAKARA SHUZO, catalogue No. 2120A) and 1 μl of Alkaline Phosphatase (TAKARA SHUZO, catalogue No. 2120A). The mixed solution was incubated at 65° C. for 30 minutes. Then, the mixed solution was treated with phenol/chloroform twice, and precipitated with ethanol to recover the DNA (hereinafter referred to as the Luc vector DNA). Then, after about 20 ng of the collagen promoter DNA and about 20 ng of the Luc vector DNA were mixed, the same amount of a DNA Ligation kit Ver2 enzyme solution was added and this was incubated overnight at 16° C. To the mixed solution was added Escherichia coli 5Hdα (TOYOBO, catalogue No. DNA-903), this was allowed to stand in ice for 30 minutes, and then incubated at 42° C. for 45 seconds. […]
(In general: In a reporter assay the amount or activity of a reporter protein is the signal.)

In assay [2] the test system is mRNA of Type I collagen gene in renal glomerulus. The assay can be described thus: mRNA of Type I collagen gene in renal glomerulus of anti-Thy-1 antibody-administered rats (improvement of chronic renal failure). It counts as in vivo, rat. The note with it: 15 mg/kg/day orally for 7 days in corn oil. The method, then:
IgG was purified from an ascites-lyophilized powder (CEDARLANE, lot No. 05122) containing an anti-rat CD90 (Thy1.1) monoclonal antibody using MAbTrap kit (Amersham Biosciences, catalogue No. 17-1128-01).
6 ml of a binding buffer was added to 3 ml of ascites to sufficiently recover it, and this was passed through a 0.22 μm filter. The resulting solution was applied to a pre-bufferized column, and the column was then washed with 10 ml of a binding buffer. Thereafter, the column was eluted with 5 ml of an elution buffer. From washing, each 1 ml was fractionated, and the protein concentration of each fraction was measured using bovine serum albumin as a standard. A single peak was confirmed from an elution pattern, and an IgG fraction was dialyzed against a physiological saline overnight at 4° C. The protein concentration of the resulting anti-Thy-1 antibody (IgG) was calculated.
The present compounds represented by the compound numbers (28a) (hereinafter, referred to as the present compound (28a)), the present compound represented by a compound number (30a) (hereinafter, referred to as the present compound (30a)), the present compound represented by a compound number (33a) (hereinafter, referred to as the present compound (33a)), the present compound represented by a compound number (10e) (hereinafter, referred to as the present compound (10e)), the present compound represented by a compound number (18e) (hereinafter referred to as the present compound (18e)), the present compound represented by a compound number (31e) (hereinafter, referred to as the present compound (31e)) and a corn oil which is a medium were weighed. These were mixed using a mortar and a pestle to prepare a […]. Using four 7-week old male Wistar rats [Nippon Charles River] per group, 60 μg/ml of the anti-Thy-1 antibody (IgG) or a physiological saline was intravenously injected via a tail vein at 5 ml/kg. […] A dose of the present compound was 15 mg/kg/day.
On the next day of final administration, a rat reared as described in the above (2) was slaughtered by collection of whole blood, and kidneys were isolated. A whole RNA was separated from the cortex of the isolated kidney using RNeasy Mini Kit (QIAGEN, catalogue No. 74106). To 5 μl (50 ng) of the separated whole RNA were added 1 μl of 20 μM oligo dT and 4 μl of RNase-free distilled water. After the mixture was incubated at 65° C. for 5 minutes, it was immediately ice-cooled. To 10 μl of the solution were added 4 μl of 5× buffer, 2.4 μl of MgCl2, 1 μl of 10 mM dNTP, 1 μl of RNasin, 1 μl of Improm II and 0.6 μl of RNase-free distilled water (all available from Promega), and a reverse transcription reaction was performed under the condition of at 25° C. for 5 minutes, at 42° C. for 1 hour, and at 70° C. for 15 minutes.
Into 5 μl of the reverse transcription reaction solution were mixed each 2 μl of each 1.25 pmol/μl of primers represented by SEQ ID NOS: 3 and 4, 1.25 μl of a probe (FAM-ctcgccttca tgcgcctgct agc-TAMRA) for detecting DNA of a Type I collagen gene represented by SEQ ID No:5, each 0.25 μl of Rodent GAPDH primers, 0.25 μl of a Rodent GAPDH probe, 12.5 μl of TaqMan Universal PCR Master Mix (all available from Applied Biosystem) and 1.5 μl of sterilized water in a well of Optical 96-Well Reaction Plate (Applied Biosystem, catalogue No. N801-0560). As a standard, in place of 5 μl of the reverse transcription reaction solution, each 5 μl of 500, 250, 125, 62.5, 31.25, 15.625 ng/μl rat renal cortex cDNA which had been prepared in advance was used. Thereafter, using Gene Amp 7900 (Applied Biosystem), PCR was performed under the condition of at 50° C. for 5 minutes, and 40 cycles in which one cycle is at 95° C. for 15 seconds and at 60° C. for 1 minute. […]

Some results are limits rather than exact numbers.

With `COC(=O)COc1cccc(C=CC(=O)c2c(O)cc(C)[nH]c2=O)c1` [Compound No. (7a), 4-hydroxy-3-[3-[3-[(methoxycarbonyl)methoxy]phenyl]-1-oxo-2-propenyl]-6-methyl-2(1H)-pyridinone], the inhibition at 1 µM in assay [1] is not below 70%.

With `Cc1cc(O)c(C(=O)C=Cc2cccc(OCC#N)c2)c(=O)n1C` [Compound No. (11a), 4-hydroxy-3-[3-[3-(cyanomethoxy)phenyl]-1-oxo-2-propenyl]-1,6-dimethyl-2(1H)-pyridinone], the inhibition at 1 µM in assay [1] was not below 70%. On to `Cn1c(=O)c(C(=O)C=Cc2cccc(OCC#N)c2)c(O)c2ccccc21` [Compound No. (11e), 1-methyl-4-hydroxy-3-[3-[3-(cyanomethoxy)phenyl]-1-oxo-2-propenyl]-2(1H)-quinolinone], for which the inhibition at 1 µM in assay [1] is not below 70%. As for `Cc1cc(O)c(C(=O)C=Cc2ccc(OCC#N)cc2)c(=O)[nH]1` [Compound No. (13a), 4-hydroxy-3-[3-[4-(cyanomethoxy)phenyl]-1-oxo-2-propenyl]-6-methyl-2(1H)-pyridinone], the inhibition at 1 µM in assay [1] is not below 70%.

Turning to `N#CCOc1ccc(C=CC(=O)c2c(O)c3ccccc3[nH]c2=O)cc1` [Compound No. (13e), 4-hydroxy-3-[3-[4-(cyanomethoxy)phenyl]-1-oxo-2-propenyl]-2(1H)-quinolinone], the inhibition at 1 µM in assay [1] is not below 70%.

Turning to `COCC(=O)Nc1cccc(C=CC(=O)c2c(O)cc(C)[nH]c2=O)c1` [Compound No. (18a), 4-hydroxy-3-[3-[3-(methoxyacetylamino)phenyl]-1-oxo-2-propenyl]-6-methyl-2(1H)-pyridinone], the inhibition at 1 µM in assay [1] was not below 70%.

On to `COCC(=O)Nc1ccc(C=CC(=O)c2c(O)cc(C)[nH]c2=O)cc1` [Compound No. (20a), 4-hydroxy-3-[3-[4-(methoxyacetylamino)phenyl]-1-oxo-2-propenyl]-6-methyl-2(1H)-pyridinone], for which the inhibition at 1 µM in assay [1] was not below 70%. The same measure, in the same setting: to `COCCOC(=O)Nc1cccc(C=CC(=O)c2c(O)c3ccccc3[nH]c2=O)c1` [Compound No. (21e), 4-hydroxy-3-[3-[3-[(2-methoxyethoxy)carbonylamino]phenyl]-1-oxo-2-propenyl]-2(1H)-quinolinone] belongs not below 70%; to `COCCNC(=O)Nc1cccc(C=CC(=O)c2c(O)cc(C)[nH]c2=O)c1` [Compound No. (22a), 4-hydroxy-3-[3-[3-[(2-methoxyethyl)aminocarbonylamino]phenyl]-1-oxo-2-propenyl]-6-methyl-2(1H)-pyridinone], not below 70%; to `CS(=O)(=O)NC(=O)c1cccc(C=CC(=O)c2c(O)c3ccccc3[nH]c2=O)c1` [Compound No. (26e), 4-hydroxy-3-[3-[3-[(methanesulfonyl)aminocarbonyl]phenyl]-1-oxo-2-propenyl]-2(1H)-quinolinone], not below 70%. On the same count and under the same terms, in the case of `COC(=O)CNC(=O)c1cccc(C=CC(=O)c2c(O)c3ccccc3[nH]c2=O)c1` [Compound No. (28e), 4-hydroxy-3-[3-[3-[[(methoxycarbonylmethyl)amino]carbonyl]phenyl]-1-oxo-2-propenyl]-2(1H)-quinolinone] it was not below 70%. Regarding `COC(=O)CNC(=O)c1ccc(C=CC(=O)c2c(O)cc(C)[nH]c2=O)cc1` [Compound No. (30a), 4-hydroxy-3-[3-[4-[[(methoxycarbonylmethyl)amino]carbonyl]phenyl]-1-oxo-2-propenyl]-6-methyl-2(1H)-pyridinone], the “ability to improve chronic renal failure” value in assay [2] (Example 5, anti-Thy-1 antibody rats) is “have the ability to improve chronic renal failure”. Also, the “mRNA of collagen gene” value in assay [2] (Table 3, Type I collagen amount/GAPDH amount, renal cortex, anti-Thy-1 antibody +, Wistar rats, control group 3.4, normal group 1.9, test results p < 0.05) came out at 2.4. For `N#CCNC(=O)c1cccc(C=CC(=O)c2c(O)c3ccccc3[nH]c2=O)c1` [Compound No. (33e), 4-hydroxy-3-[3-[3-[[(cyanomethyl)amino]carbonyl]phenyl]-1-oxo-2-propenyl]-2(1H)-quinolinone], the inhibition at 1 µM in assay [1] was not below 70%.

For the molecule `Cc1cc(O)c(C(=O)C=Cc2cccc(C(=O)NCC#N)c2)c(=O)[nH]1` [Compound No. (35a), 4-hydroxy-3-[3-[3-[(cyanomethyl)aminocarbonyl]phenyl]-1-oxo-2-propenyl]-6-methyl-2(1H)-pyridinone], the inhibition at 1 µM in assay [1] was not below 70%.

What is called inhibition is the drop in the measured response relative to a control, in per cent.
